In patent publication US9604969B2, “Pyrimidin-4-yl)oxy)-1h-indole-1-carboxamide derivatives and use thereof” (NOVARTIS AG, priority 2013, dated 2017):
Counter-ions that a name gives are not always drawn.

Assays:
[1] = Control incubations for chemical stability in incubation media; format: physicochemical; details: 10 μmol/L, 37° C., incubation media in the absence of hepatocytes or liver microsomes
Description: (§1) To check the chemical stability of [^14C]N-(1-methyl-5-(trifluoromethyl)-1H-pyrazol-3-yl)-5-(6-((methylamino)methyl)pyrimidin-4-yloxy)-1H-indole-1-carboxamide under the incubation conditions, the compound was incubated at a concentration of 10 μmol/L in HepatoZYME without hepatocytes. A second series of control incubations was performed with hepatocytes of all species in the absence of the test compound to investigate the effect of the latter on the viability. These experiments were performed in a 12×6 mL MultiWell™ plate (Art. 393503, Beckton Dickinson).
Microsomal incubations for metabolite profiles were performed at 10 μmol/L of [^14C]N-(1-methyl-5-(trifluoromethyl)-1H-pyrazol-3-yl)-5-(6-((methylamino)methyl)pyrimidin-4-yloxy)-1H-indole-1-carboxamide (approx. 50% radiolabeled) with one time point investigated (60 min). Incubations were performed at 37° C. in 0.1 mol/L sodium phosphate buffer pH 7.4. The final concentrations in the incubation cocktail were: 4 mmol/L UDPGA (Sigma-Aldrich), 1 mmol/L β-NADPH (Sigma-Aldrich), 5 mmol/L MgCl2, and 60 μg alamethicin (Sigma-Aldrich) per mg microsomal protein. The system was left to incubate for 10 min before adding the test compound to allow the pore formation with the alamethicin. […]

rat hepatocytes = assay: Hepatocyte viability during incubation (Guava ViaCount); format: cell-based; details: 10 μmol/L, percent viable cells relative to total cells, controls without compound 4-21%
Description: (§2) After thawing the cryopreserved hepatocytes, the viable cells were enriched by centrifugation in HepatoZYME cell culture medium (Gibco Invitrogen). For this purpose, the cells were added to 45 mL of a 37° C. warm HepatoZYME, and centrifuged at room temperature, at 50 g for 5 min. The supernatant containing dead cells was discarded and the cells in the pellet were re-suspended in HepatoZYME.
(§3) The viability of the re-suspended hepatocytes was determined by a Guava EasyCyte™ Mini system using the ViaCount® assay as described by the supplier (Guava Technologies, Hayward, Calif., USA). After cell counting, the cell concentration was adjusted to approx. 1·10^6 viable cells/mL by adding HepatoZYME. Subsequently, the incubations were started by adding [^14C]N-(1-methyl-5-(trifluoromethyl)-1H-pyrazol-3-yl)-5-(6-((methylamino)methyl)pyrimidin-4-yloxy)-1H-indole-1-carboxamide and non-labeled N-(1-methyl-5-(trifluoromethyl)-1H-pyrazol-3-yl)-5-(6-((methylamino)methyl)pyrimidin-4-yloxy)-1H-indole-1-carboxamide as a solution in DMSO. The final concentration of DMSO in the incubations was 0.1% (v/v).
as §1
(§4) The incubations were performed at 37° C. under a humidified atmosphere of 95% relative humidity and 5% CO2 in a Heraeus incubator/cytoperm (Kendro Laboratory Products AG, Zürich, Switzerland). During the incubations, the plates and flasks were shaken at 300 strokes per minute. The viability of the hepatocytes was determined after 6 h (end of incubation).

rabbit hepatocytes = assay: as above; format: cell-based; details: 10 μmol/L, percent viable cells relative to total cells, controls without compound 4-21%
Description: as §2, §3, §1, §4

monkey hepatocytes = assay: as above; format: cell-based; details: 10 μmol/L, percent viable cells relative to total cells, controls without compound 4-21%
Description: as §2, §3, §1, §4

human hepatocytes = assay: as above; format: cell-based; details: 10 μmol/L, percent viable cells relative to total cells, controls without compound 4-21%
Description: as §2, §3, §1, §4

[2] = format: physicochemical
From the text: Crystalline form B of the HCl salt of N-(1-methyl-5-(trifluoromethyl)-1H-pyrazol-3-yl)-5-((6-((methylamino)methyl)pyrimidin-4-yl)oxy)-1H-indole-1-carboxamide was obtained using the same procedure as in Example 5 above.

Compound: CNCc1cc(Oc2ccc3c(ccn3C(=O)Nc3cc(C(F)(F)F)n(C)n3)c2)ncn1 [N-(1-methyl-5-(trifluoromethyl)-1H-pyrazol-3-yl)-5-((6-((methylamino)methyl)pyrimidin-4-yl)oxy)-1H-indole-1-carboxamide]
- Chemical stability under the incubation conditions [1]: confirmed the stability of the compound
- Viability at 6 h (rat hepatocytes): 22%
- Viability at 6 h (rabbit hepatocytes): 8%
- Viability at 6 h (monkey hepatocytes): 42%
- Viability at 6 h (human hepatocytes): 25%

Compound: CNCc1cc(Oc2ccc3c(ccn3C(=O)Nc3cc(C(F)(F)F)n(C)n3)c2)ncn1 [Form B, N-(1-methyl-5-(trifluoromethyl)-1H-pyrazol-3-yl)-5-((6-((methylamino)methyl)pyrimidin-4-yl)oxy)-1H-indole-1-carboxamide (HCl Salt) Form B]
- Stability of crystalline form [2]: transient form that converts back to Form A
